Test results from US20170095505A1, “COMBINATION OF XENON AND AN ANTIOXIDANT TO CONTROL A PARKINSON'S DISEASE-TYPE NEURODEGENERATIVE DISEASE” (L'Air Liquide, Société Anonyme pour I'Etude et …, priority 2014, published 2017).

System: TH-positive (dopaminergic) neurons of mesencephalon cultures
Experiment: Survival of TH-positive dopaminergic neurons in rat mesencephalon primary cultures, degeneration by chronic treatment with PDC, under controlled gaseous atmosphere
Format: cell-based
Set-up: key to Survival of TH-positive neurons: a favorable response, synonymous with a decrease in the level of neuronal cell death in the presence of the treatments of interest, is denoted by a “+”, “++”, or “+++” sign (+++ = level of reference); a favorable response, synonymous with a decrease in the level of neuronal cell death in the presence of the treatments of interest, is denoted by a “+”, “++”, or “+++” sign; a favorable response, synonymous with a decrease in the level of neuronal cell death in the presence of the treatments of interest, is denoted by a “+”, “++”, or “+++” sign; an unfavorable response is represented by a “−” sign, synonymous with an increase in the neuronal death
Conditions: for Survival of TH-positive neurons: D13-D16, analyzed D16; for survival rate of dopaminergic neuronal cells: % of cultures not treated with PDC under 75% nitrogen
Description: Cultures are prepared from mesencephalon of rat embryos, taken from gestating female Wistar rats on day 15.5 of gestation. The method for obtaining the mesencephalon cultures comprises obtaining a homogeneous cell suspension via mechanical dissociation, i.e. non-enzymatic dissociation, of the embryonic tissue, using Leibovitz L15 medium (Sigma Aldrich). Aliquots of this suspension are added to Nunc 48-well plates, which were precoated with a thin layer of polyethyleneimine (1 mg/ml, borate buffer, pH 8.3) so as to enable the adhesion of the neuronal cells (cf. Toulorge et al., Faseb J, 2011). The seeding density is between approximately 80 000 and 100 000 cells/cm^2. The mesencephalon cultures are maintained in neurobasal culture medium, containing a B27 cocktail without antioxidant, N2 supplement, glutamine (2 mM) and a penicillin/streptomycin cocktail ([…] al., J Neurochem, 2008). The medium and supplements thereof are available from Life Technologies. Up to the time when the effects of the gases of interest are evaluated, the cultures are placed in a conventional enclosure thermostatically controlled at 37° C., in which the CO2 is maintained at 5% by volume and wherein the atmosphere is saturated with water. No change of culture medium is carried out throughout the culture period. Pharmacological Treatments of the Cultures p The degenerative process is triggered by applying a glutamate reuptake system blocker, L-trans-pyrrolidine-2,4-dicarboxylic acid or PDC (Zuiderwijk et al., Europ J Pharmacol, 1994). The antioxidant, namely Trolox, is added to the cultures before the application of PDC. Once the pharmacological treatments have been carried out, the multiwell plates containing the cells in culture and the plate used to humidify the internal compartment of the chamber are placed on a metal base which receives the Plexiglas incubation chamber. The two parts (base and Plexiglas chamber) are butt-joined together by screwing. A gas mixture of interest comprising (% by volume): 20% of O2, 5% of CO2 and 75% of the gas tested is then injected into the incubation chamber, with open inlet and outlet valves, while at the same time controlling the output flow rate by means of a flow meter. The gases tested are nitrogen and xenon. The reference output flow rate, set for air at 10 liters/min, is corrected according to the density of the mixture used. When the CO2 measurement reaches 5% at the outlet, the injection of the gas mixture is stopped and the chamber is made totally airtight by closing the inlet and outlet valves. The exposure chamber is then placed in an enclosure at 37° C. throughout the experimental protocol. After breaking the […] by opening the inlet and outlet valves and unscrewing the chamber from its base, the cultures are fixed with 4% formaldehyde in PBS for 12 min and then incubated at 4° C. with an anti-TH monoclonal antibody (dilution 1/5000) for 2 days. […] The image acquisition is carried out with an infrared imager of Odyssey type (Li-COR Biosciences) and the quantification of the neurons is carried out by means of the ICY software (Institut Pasteur). The results recorded on the figure appended hereto illustrate the synergistic protective effects of xenon and of Trolox in a cell model mimicking chronic Parkinsonian degeneration. […] The cultures are then recovered for fixing and analysis. The neuronal survival is quantified under the various experimental conditions tested, by counting the number of cell bodies immunopositive for the dopaminergic marker TH. The results are expressed in % (±SEM) of the mean values of the cultures not treated with PDC, maintained under 75% of nitrogen (control condition).

O=C(O)[C@H]1CN[C@H](C(=O)O)C1 (relative stereo) [PDC, L-trans-pyrrolidine-2,4-dicarboxylic acid]
Survival of TH-positive neurons (PDC 100 μM, 20% O2 + 5% CO2 + 75% N2): −
survival rate of dopaminergic neuronal cells (PDC 100 μM, atmosphere containing 75 vol % nitrogen): 25.4%

Cc1c(C)c2c(c(C)c1O)CCC(C)(C(=O)O)O2 (stereo not drawn) [Trolox, 6-hydroxy-2,5,7,8-tetramethylchromane-2-carboxylic acid]
Survival of TH-positive neurons (PDC 100 μM + Trolox 0.1 μM, 75% N2): −
Survival of TH-positive neurons (PDC 100 μM + Trolox 0.3 μM, 75% N2): −
Survival of TH-positive neurons (PDC 100 μM + Trolox 1 μM, 75% N2): +
Survival of TH-positive neurons (PDC 100 μM + Trolox 10 μM, 75% N2): ++
Trolox concentration from which a significant protective effect is produced (PDC 100 μM, 75% nitrogen, p<0.05 vs cultures exposed only to PDC in the same atmosphere): ≥ 1 µM
effect of Trolox applied alone on neuronal survival (PDC 100 μM, Trolox 0.1-0.3 μM, atmosphere containing 75% nitrogen): no significant effect

[Xe] [Xe, xenon]
Survival of TH-positive neurons (PDC 100 μM, 20% O2 + 5% CO2 + 75% Xe): ++
survival of dopaminergic neurons treated with PDC, 75% xenon compared with 75% nitrogen (PDC 100 μM, Trolox present or absent, p<0.05 vs corresponding cultures under 75% nitrogen): increase in the survival
survival rate of dopaminergic neuronal cells (PDC 100 μM, nitrogen replaced with xenon (75%)): 57.7%
Survival of TH-positive neurons (no PDC (Control group II), 20% O2 + 5% CO2 + 75% Xe): +++
